Measurements from patent US12686668B2, “Leukotriene synthesis inhibitors” (Naegis Pharmaceuticals Inc., priority 2019, dated 2026).
Read-outs that look alike come from different tables or passages of the source.

Tests used:
[1] = system: LTB4 production in porcine or human whole blood; experiment: Whole blood HPLC assay, inhibition of LTB4 production; type: cell-based; settings: 5 point curve, porcine or human whole blood (not specified)
Procedure, shortened: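 Porcine or human whole blood was pre-incubated 30 min with compound, then stimulated 20 min at room temperature with 20 μM A23187 (porcine blood also received 20 μM arachidonic acid). Plasma LTB4 was extracted on C18 and quantified by HPLC against reference standards. IC50 from a 5-point curve, with inhibition relative to controls.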

[2] = system: LTC4 production in MC/9 cells; experiment: MC/9 HPLC assay, inhibition of LTC4 production; type: cell-based; settings: Mus musculus; for inhibition at 3 µM: MC9, 3 μM, A23187 stimulated
Procedure, shortened: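 MC/9 cells (3×10^6 in HBSS) pre-incubated 30 min with compound, then stimulated 20 min at room temperature with 1 μM A23187. After methanol quench and C18 solid-phase extraction, LTB4 and LTC4 quantified by HPLC against reference standards; inhibition relative to control samples.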

[3] = biological target: T1, recombinant human leukotriene A4 hydrolase enzyme (Homo sapiens, UniProt P09960); experiment: Amino-peptidase assay, alanine-4-nitroanalide; type: biochemical; settings: negative values = augmented peptidase activity, read-out: % Inhibition aminopeptidase-Alanine-4-nitroanalide activity of LTA4H (3 μM)
T1 construct: purchased Cayman Chemical 10007817
T1 sequence (P09960 1-611): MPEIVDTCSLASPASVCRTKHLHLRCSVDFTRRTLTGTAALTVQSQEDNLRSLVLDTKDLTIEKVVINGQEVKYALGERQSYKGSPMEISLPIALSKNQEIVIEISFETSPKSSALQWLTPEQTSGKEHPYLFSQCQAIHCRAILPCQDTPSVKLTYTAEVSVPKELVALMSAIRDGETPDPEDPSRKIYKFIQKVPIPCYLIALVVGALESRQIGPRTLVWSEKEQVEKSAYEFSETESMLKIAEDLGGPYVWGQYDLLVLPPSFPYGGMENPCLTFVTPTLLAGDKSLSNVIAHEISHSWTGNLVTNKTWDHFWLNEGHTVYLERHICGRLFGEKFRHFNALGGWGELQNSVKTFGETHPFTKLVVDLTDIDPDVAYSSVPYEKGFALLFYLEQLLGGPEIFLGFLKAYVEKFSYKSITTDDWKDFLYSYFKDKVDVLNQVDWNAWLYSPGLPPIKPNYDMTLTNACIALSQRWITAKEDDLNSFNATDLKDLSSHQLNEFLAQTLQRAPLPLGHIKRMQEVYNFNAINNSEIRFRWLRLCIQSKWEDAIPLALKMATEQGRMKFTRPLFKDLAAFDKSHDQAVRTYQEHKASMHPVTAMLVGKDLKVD
Procedure, shortened: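 Compounds pre-incubated in the dark with recombinant human LTA4H (0.5 μg) in 50 mM Tris-HCl, 100 mM KCl; reaction started with alanine-4-nitroanilide (6 mM solution). Aminopeptidase rate followed as A405 from 4-nitroaniline, referenced to a standard; inhibition calculated versus controls, with negative values indicating augmented activity.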

[4] = MC9, Table 2 column 3, no concentration in head (1 μM according to b732), read-out: % Inhibition LTC4

Row | IC50 [1] [µM] | inhibition at 3 µM [3] [%] | SMILES | inhibition at 1 µM ([2]; MC9, 1 μM, read-out: % inhibition LTC4 (1 μM)) [%] | inhibition at 3 µM [2] [%] | inhibition at 1 µM [2, 4] [%]
1 | 0.1 to 1 | -50 to 100 | CCC(O)(CCc1ccc(Oc2nc3c(SC)cccc3s2)c(OC)c1)C(F)(F)F (stereo not drawn) [Compound 104, 1-{3-methoxy-4-[(4-methylsulfanyl-1,3-benzothiazol-2-yl)oxy]phenyl}-3-(trifluoromethyl)pentan-3-ol] | 90 | > 90 | > 90
2 | 0.1 to 1 | > 75 | CC(O)(CCc1ccc(OCc2ccc3ccccc3n2)cc1)C(F)(F)F (stereo not drawn) [Compound 183, 1,1,1-trifluoro-2-methyl-4-[4-(quinolin-2-ylmethoxy)phenyl]butan-2-ol] |  | > 90 | > 90
